Laboratory results taken from patent US6462193B1, “Hydroxyazepanes as inhibitors of glycosidase and HIV protease” (The Scripps Research Institute, priority 1999, dated 2002).
Entries after “also recorded” stand apart in the source; their conditions may differ. Where two headings read alike, the source gives them in different places.

Columns and labels:
[1] = biological target: β-N-acetylglucosaminidase; settings: literature value (Wong et al. 1995); read-out: Ki as inhibitor of β-N-acetylglucosaminidase; cited from earlier work
[2] = biological target: T1, α-fucosidase (Bos taurus, UniProt Q2KIM0); settings: literature value (Fleet et al. 1985); read-out: Ki as inhibitor of α-fucosidase; cited from earlier work
T1 sequence (Q2KIM0 23-468): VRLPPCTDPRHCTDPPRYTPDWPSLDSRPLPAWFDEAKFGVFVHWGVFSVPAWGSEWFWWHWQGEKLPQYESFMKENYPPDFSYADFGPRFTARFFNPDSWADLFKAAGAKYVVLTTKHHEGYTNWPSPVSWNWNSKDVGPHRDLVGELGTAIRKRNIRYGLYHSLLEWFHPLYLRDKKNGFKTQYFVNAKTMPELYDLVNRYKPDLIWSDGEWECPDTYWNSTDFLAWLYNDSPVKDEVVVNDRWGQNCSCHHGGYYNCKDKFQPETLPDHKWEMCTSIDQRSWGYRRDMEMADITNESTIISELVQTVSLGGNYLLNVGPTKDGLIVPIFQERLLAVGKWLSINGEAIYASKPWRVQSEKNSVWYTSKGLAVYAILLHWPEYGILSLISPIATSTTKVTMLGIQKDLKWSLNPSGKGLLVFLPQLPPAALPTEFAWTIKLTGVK

[3] = biological target: β-galactosidase; settings: read-out: Ki as inhibitor of β-galactosidase; literature value (Bernotas et al. 1987); cited from earlier work
[4] = biological target: β-N-acetylglucosaminidase; assay: Glycosidase inhibition analysis, β-N-acetylglucosaminidase; assay type: biochemical; settings: read-out: Ki as inhibitor of β-N-acetylglucosaminidase
Method: (§1) Inhibition analyses were performed at 37° C. in 0.1 M HEPES buffer, pH=6.8, except for α-fucosidase (assayed at 37° C. in 50 mM sodium acetate buffer, pH 6.0). The amount of enzyme added in each assay was 0.05 units (0.1 units for β-galactosidase and α-fucosidase). […] Data were collected and fitted to a Michaelis-Menten curve by using the program HyperCleland for enzyme kinetics analysis (Cleland, W. W. Methods Enzymol. 1979, 63, 103).

[5] = biological target: T2, HIV protease (Human immunodeficiency virus type 1 group M subtype B, UniProt P03369); assay type: biochemical, HIV-1
T2 construct: a backbone engineered HIV-1 protease was prepared by total synthesis; made in house; host or cells: total chemical synthesis (no expression host)
Method: For determination of IC50 values for HIV protease, a backbone engineered HIV-1 protease was prepared by total synthesis (Schnolzer et al. Science 1992, 256, 221) 450 nM Final concentration of the protease was added to a solution (152 μL final volume) containing tetrahydroxyazepane (inhibitor), 28 μM fluorogenic peptide substrate (Abz-Thr-Ile-Phe-(p-NO2)-Gln-Arg-NH2) (Tith et al. Int. J. Peptide Protein Res. 1990, 36, 544; Slee, et al. J. Am. Chem. Soc. 1995, 117, 11867) and 1.8% dimethyl sulfoxide in assay buffer: 100 mM MES buffer containing 0.5 mg/mL BSA (bovine serum album) at pH 5.5. A Km of 37±8 μM was reported for the synthetic HIV protease against the above fluorogenic substrate. The solution was mixed and incubated over 5 minutes at 37° C. during which time the rate of substrate cleavage was monitored by continuously recording the change in fluorescence of the assay solution. An excitation filter of 325 nm and an emission filter of 420 nm were used. For each inhibitor concentration, three measurements were carried out.

[6] = biological target: β-galactosidase; assay: Glycosidase inhibition analysis, β-galactosidase; assay type: biochemical; settings: read-out: Ki as inhibitor of β-galactosidase
Method: as §1

[7] = test system: glycosidases; assay: Glycosidase inhibition analysis, panel of glycosidases; assay type: biochemical
Method: as §1

[8] = biological target: T3, FIV protease (Feline immunodeficiency virus, UniProt P16088); assay: FIV protease inhibition, fluorogenic peptide substrate; assay type: biochemical
T3 construct: enzymatic activity of recombinantly derived FIV protease; made in house
Method: The inhibitory effects of compounds 60a, 60b, 64a, 64b, 65a, and 65b on the enzymatic activity of recombinantly derived FIV protease (Slee et al. J. Am. Chem. Soc. 1995, 117, 11867) were studied using a fluorogenic assay based on the enzymatic cleavage of a novel peptide based substrate [Arg-Ala-Leu-Thr-Lys(aminobenzyl)-[…]. Inhibition studies were carried out at a single substrate concentration (20 μM) in a 50 mM sodium citrate/100 mM sodium phosphate buffer (pH 5.3) containing 2% DMSO and 1M sodium chloride. The same wavelengths were used for detections. […] IC50 values were determined by least squares analysis of Dixon Plots (Dixon, M. J. Biochem. 1953, 55, 170).

Row | Compound | inhibition of the HIV protease (in words) [5] | inhibition of the glycosidases (in words) [7] | further results
1 | CC(=O)N1C[C@H](O)[C@@H](O)[C@H](O)[C@H]1CO [1-deoxy-N-acetylglucojirimycin] | – | – | Ki [1]: 9.8 µM
2 | C[C@@H]1NC[C@@H](O)[C@H](O)[C@@H]1O [1-deoxyfucojirimycin] | – | – | Ki [2]: 0.005 µM
3 | OC[C@H]1NC[C@H](O)[C@@H](O)[C@H]1O [1-deoxygalactojirimycin] | – | – | Ki [3]: > 1000 µM
4 | OC1CNCC(O)C(O)C1O [Compound 3, (3R,4R,5R,6R)-tetrahydroxyazepane] | not inhibitors; also recorded: did not show inhibitory activities | – | Ki [4]: 4.6 µM
5 | O[C@H]1[C@H](O)[C@@H](O)CNC[C@@H]1O [Compound 6, (3S,4R,5R,6S)-3,4,5,6-Tetrahydroxyazepane] | not inhibitors; also recorded: did not show inhibitory activities | inhibits all glycosidases | Ki [6]: 6.5 µM
6 | O[C@H]1[C@H](O)[C@H](O)CN(Cc2ccccc2)C[C@H]1O [Compound 7, (3R,4R,5R,6R)-N-Benzyl-3,4,5,6-tetrahydroxyazepane] | not inhibitors | does not improve inhibition activity except in the case of α-fucosidase | –
7 | O[C@H]1[C@H](O)[C@@H](O)CN(Cc2ccccc2)C[C@@H]1O [Compound 8, (3S,4R,5R,6S)-N-Benzyl-3,4,5,6-tetrahydroxyazepane] | not inhibitors | does not improve inhibition activity except in the case of α-fucosidase | –
8 | CO[C@@H]1CN[C@H](CO)[C@@H](O)[C@H]1O [Compound 28, 2-O-methyl-1-deoxy-D-mannojirimycin] | – | None of these two azasugars exhibited significant inhibition | –
9 | CO[C@H]1CN[C@@H](CO)[C@H](O)[C@@H]1O [Compound 29, 2-O-methyl-1-deoxy-L-mannojirimycin] | – | None of these two azasugars exhibited significant inhibition | –
10 | O[C@@H]1[C@@H](O)[C@@H](OCc2cccc(F)c2)CNC[C@@H]1OCc1cccc(F)c1 [Compound 60a, (3S,4R,5R,6S)-3,6-di-O-(3′-fluorobenzyl)-3,4,5,6-tetrahydroxyazepane] | inhibit | not inhibitors | IC50 against FIV protease [8]: inceased compared to their inhibitory activity to the HIV protease; inhibition of FIV protease (in words) [8]: active
11 | O[C@@H]1[C@@H](O)[C@@H](OCc2cc(F)cc(F)c2)CNC[C@@H]1OCc1cc(F)cc(F)c1 [Compound 60b, (3S,4R,5R,6S)-3,6-di-O-(3′,5′-difluorobenzyl)-3,4,5,6-tetrahydroxyazepane] | inhibit | not inhibitors | IC50 against FIV protease [8]: inceased compared to their inhibitory activity to the HIV protease; inhibition of FIV protease (in words) [8]: active; Ki [5]: ~350 µM
12 | CN1C[C@H](OCc2cccc(F)c2)[C@H](O)[C@@H](O)[C@@H](OCc2cccc(F)c2)C1 [Compound 64a, (3S,4R,5R,6S)-3,6-di-O-(3′-Fluorobenzyl)-N-methyl-3,4,5,6-tetrahydroxyazepane] | inhibit | not inhibitors | –
13 | CN1C[C@H](OCc2cc(F)cc(F)c2)[C@H](O)[C@@H](O)[C@@H](OCc2cc(F)cc(F)c2)C1 [Compound 64b, (3S,4R,5R,6S)-3,6-di-O-(3′,5′-difluorobenzyl)-N-methyl-3,4,5,6-tetrahydroxyazepane] | inhibit | not inhibitors | –
14 | C[N+]1([O-])C[C@H](OCc2cccc(F)c2)[C@H](O)[C@@H](O)[C@@H](OCc2cccc(F)c2)C1 (stereo partly drawn) [Compound 65a, (3S,4R,5R,6S)-3,6-di-O-(3′-Fluorobenzyl)-N-methyl-3,4,5,6-tetrahydroxyazepane N-oxide] | inhibit | not inhibitors | –
15 | C[N+]1([O-])C[C@H](OCc2cc(F)cc(F)c2)[C@H](O)[C@@H](O)[C@@H](OCc2cc(F)cc(F)c2)C1 (stereo partly drawn) [Compound 65b, (3S,4R,5R,6S)-3,6-di-O-(3′,5′-difluorobenzyl)-N-methyl-3,4,5,6-tetrahydroxyazepane N-oxide] | inhibit | not inhibitors | –
